Source: PMC10783034, “Pharmacokinetic and pharmacodynamic evaluation of the atypical tetracyclines chelocardin and amidochelocardin in murine infection models” (Microbiology Spectrum, 2023)

Key:
[1] = test system: E. coli C175-94; assay: Ascending urinary tract infection model in OF-1 mice; format: in vivo; conditions: for bacterial burden in urine: CHD/CDCHD 12 mg/kg SC BID on day 1 and 2 post-inoculation; for bacterial burden in urine / bacterial burden in kidneys / bacterial burden in the bladder: day 3, vs vehicle; for animals with sterile kidneys / bacterial burden in kidneys / bacterial burden in the bladder: CHD/CDCHD 12 mg/kg SC BID, gentamicin 100 mg/kg SC BID; for animals with sterile kidneys: control animals 23.8%
Description: (§1) The model was conducted as described previously ([27], [60]). In brief, n = 21 animals were used per group in the main study, and n = 3 animals per group in satellite groups for histopathological analysis. Three days before the start of the study and during the study, mice had free access to 5% glucose as drinking water. Fresh overnight colonies of E. coli from a 5% horse blood agar plate were suspended in PBS pH 7.4 to approximately 10^9 cfu/mL. Approximately 1 hour before inoculation, mice were treated orally with […] Nurofen (20 mg ibuprofen/mL corresponding to approximately 30 mg/kg) as a pain relief. Urine was removed from the bladder by gently pressing the abdomen and mice were anaesthetized with 0.15 mL Zoletil mix SC. Thereafter, the mice were inoculated. A syringe with a catheter, containing the bacterial suspension was inserted via the urethra into the bladder and 50 µL of the inoculum was slowly injected into the bladder. Hereafter, the mouse was placed in the cage and kept in a warming cabinet until fully awake (approximately 4 hours). The mice were treated with CHD (12 mg/kg SC BID), CDCHD (12 mg/kg SC BID), gentamicin (100 mg/kg SC BID), or vehicle BID (2nd dose was administered approximately 6 hours after the 1st dose on each day) on day 1, that is, first dose around 24 hours post-infection, and day 2 post-inoculation. The mice were observed during the study and scored based on their behavior and clinical signs. Clinical scoring comprised assessment of piloerection in the skin, activity (movement, curiosity), and appearance of eyes. The scoring range comprised 0–4. In our model, a maximum score of 1; thus, only mild discomfort was observed. On day 3 post-inoculation and after sampling urine, mice were euthanized by cervical dislocation, and bladder and kidneys were removed from 21 mice in each treatment group aseptically for cfu determination. The bladder and kidneys were stored at −80°C and later homogenized in 0.5 or 1 mL saline, respectively. Colony counts of urine were determined immediately. From the three additional mice in each treatment group (satellite groups), urine and plasma were sampled and frozen at −80°C, and bladders, kidneys, and liver were collected in 4% buffered formalin. Cfu was determined in urine samples within 2–3 hours after sampling. Frozen organs were thawed and homogenized with steel beads using a tissue lyser. All samples, urine, kidney, and bladder, were 10-fold diluted in saline and 20 µL spots were applied on blue agar plates in duplicates. In addition, undiluted samples of urine (2–100 μL depending on the available amount of urine) were spread on a separate agar plate to determine the colony counts at the lowest possible detection level. All agar plates were incubated for 18–22 hours at 35°C in ambient air.
For the neutropenic thigh infection model with E. coli ATCC 25922, the thighs were regarded as two independent infection sites throughout the experiment. For statistical analysis, individual thighs (left and right) were treated as separate samples although these were not completely independent values. For the neutropenic thigh infection model with K. pneumoniae ATCC 43816, the individual thighs (left and right) were treated as one sample. For the efficacy models, the non-parametric Kruskal-Wallis test was used with GraphPad Prism 9.4.1. For the ascending urinary tract infection model, an ordinary one-way ANOVA with Dunnett’s multiple comparison test was used with GraphPad Prism 9.4.1.

[2] = Histopathological analysis of kidneys and bladder in the ascending urinary tract infection model (satellite groups); format: in vivo, mice; parameters: key to histopathological score Pelvis: 1 = mild; 2 = moderate; 3 = severe; histopathological score Papilla / histopathological score Bladder: scale not given here; conditions: for histopathological findings in bladder / histopathological findings in kidneys: infected mice, CHD/CDCHD 12 mg/kg SC BID, gentamicin 100 mg/kg SC BID
Description: as §1
Approximately 3 µm thick sections of formalin-fixed, paraffin-embedded samples of liver and kidney were analyzed blinded, and randomized to the experimental groups by a trained veterinarian. […] Kidneys were analyzed for changes in the glomeruli (not found), tubular dilation (1 = mild or up to 20% of tubuli affected, 2 = moderate or 25-40% of tubuli affected, 3 = severe 50% or more), and inflammatory infiltrate in the pelvis (1 = mild, 2 = moderate, 3 = severe).

SMILES | bacterial burden in urine [1] | animals with sterile kidneys [1] | bacterial burden in kidneys [1] | bacterial burden in the bladder [1] | histopathological score Glomeruli ([2]; animal No. 1) | histopathological score Papilla ([2]; animal No. 1) | histopathological score Pelvis ([2]; animal No. 1) | histopathological score Tubuli ([2]; animal No. 1) | histopathological score Bladder ([2]; animal No. 2) | histopathological score Glomeruli ([2]; animal No. 2) | histopathological score Papilla ([2]; animal No. 2) | histopathological score Pelvis ([2]; animal No. 2) | histopathological score Tubuli ([2]; animal No. 2) | histopathological score Bladder ([2]; animal No. 3) | histopathological score Glomeruli ([2]; animal No. 3) | histopathological score Papilla ([2]; animal No. 3) | histopathological score Pelvis ([2]; animal No. 3) | histopathological score Tubuli ([2]; animal No. 3) | histopathological findings in bladder [2] | histopathological findings in kidneys [2] | also measured
CC(=O)C1=C(O)[C@H](N)[C@@H]2Cc3c(c(O)c4c(O)c(C)ccc4c3C)C(=O)[C@]2(O)C1=O [CHD, chelocardin] | reduced bacterial burden in urine significantly | 38.1% | slight, non-significant effect | significant reduction compared to vehicle control | 0 | 2 | 0 | 3 (3 = severe 50% or more) | - 1 1 | 0 | 2 | 1 | 3 (3 = severe 50% or more) | - 1 1 | 0 | 0 | 2 | 1 (1 = mild or up to 20% of tubuli affected) | mild, focal, submucosal inflammatory aggregates | moderate tubulus degeneration with vacuolated cytoplasm, accumulation of hyaline droplets, protein casts, and a mild to moderate accumulation of inflammatory cells | –
Cc1ccc2c(C)c3c(c(O)c2c1O)C(=O)C1(O)C(=O)C(C(N)=O)=C(O)C(N)C1C3 (centres unmarked) [CDCHD, 2-carboxamido-2-deacetyl-chelocardin] | reduced bacterial burden in urine significantly | 61.9% | strong and significant reduction | significant reduction compared to vehicle control | 0 | 0 | 0 | 2 (2 = moderate or 25-40% of tubuli affected) | 0 | 0 | 0 | 1 | 2 (2 = moderate or 25-40% of tubuli affected) | 0 | 0 | 1 | 0 | 1 (1 = mild or up to 20% of tubuli affected) | did not show any significant alterations | a moderate tubulus dilation (resulting in moderate or 20%–40% of tubuli affected) and protein casts | histopathological score Bladder ([2]; animal No. 1): 0
